Biological target: MAP2K1 (MEK1) (Homo sapiens (Human), UniProt Q02750)
Experiment: MEK Inhibition Assay-2 (Z'-LYTE biochemical assay; Example 5)
Details: Table 6, Z'-LYTE procedure of Example 5; read-out: IC50 against MEK1
Experimental: MEK1 inhibitory activity of compounds were tested using the following procedure (protocol available at thermofisher.com/content/dam/LifeTech/migration/files/drug-discovery/pdfs.par.60256.file.dat/20130430%20ssbk%20customer%20protocol%20and%20assay%20conditions.pdf). The Z′-LYTE biochemical assay (ThermoFisher) employs a fluorescence-based, coupled-enzyme format and is based on the differential sensitivity of phosphorylated and non-phosphorylated peptides to proteolytic cleavage.
Test compounds in 100% DMSO were screened in 1% DMSO (final) in the well. For 10 point titrations, 3-fold serial dilutions are conducted from the starting concentration of 30 μM.
After the 1 hour incubation, 5 μL of a 1:1024 dilution of Development Reagent A (available from Invitrogen, catalog no. PV3295) was added.
ATP solutions were diluted to a 4× working concentration in Kinase Buffer (50 mM HEPES pH 7.5, 0.01% BRIJ-35, 10 mM MgCl2, 1 mM EGTA). ATP Km apparent was previously determined using a Z′-LYTE assay. The Development Reagent was diluted in Development Buffer (available from Invitrogen, catalog no. P3127).
Assay Protocol: 2.5 μL of 4× test compound or 100 nL of 100× Test Compound plus 2.4 μL Kinase Buffer, 5 μL of the 2× Peptide/Kinase Mixture, 2.5 μL of 4×ATP Solution were added to the plates and placed on a shake plate for 30-seconds. The kinase reaction was allowed to proceed for 60-minute at room temperature, before 5 μL of Development Reagent Solution was added, and the mixture agitated for 30-seconds on a shake plate. The mixture was incubated for 60-minute at room temperature. Fluorescence was measured using a plate reader and the data were analyzed.
This control yielded 100% cleaved peptide in the Development Reaction. The 100% Phosphorylation Control, which consisted of a synthetically phosphorylated peptide of the same sequence as the peptide substrate, was designed to allow for the calculation of percent phosphorylation. This control yielded a very low percentage of cleaved peptide in the Development Reaction. The 0% Phosphorylation and 100% Phosphorylation Controls allow for the calculation of the percent phosphorylation achieved in a specific reaction well.
The minimum emission ratio in a screen was established by the 0% Inhibition Control, which contained active kinase. This control was designed to produce a 10-50% phosphorylated peptide in the Kinase Reaction. Cascade assays may produce up to 70% phosphorylated peptide.
A known inhibitor control standard curve, 10 point titration, was run for each individual kinase on the same plate as the kinase to ensure the kinase was inhibited within an expected IC50 range previously determined.
The following controls are prepared for each concentration of Test Compound assayed. […] The expected value for a non-interfering compound should be 100%. Any value outside of 90% to 110% was flagged. […] The expected value for a non-fluorescence compound should be 0%. Any value >20% was flagged.
The data in Table A was calculated. XLfit from IDBS was used. The dose response curve was curve fit to model number 205 (sigmoidal dose-response model).

Chain of MAP2K1 (MEK1) (Q02750 whole entry): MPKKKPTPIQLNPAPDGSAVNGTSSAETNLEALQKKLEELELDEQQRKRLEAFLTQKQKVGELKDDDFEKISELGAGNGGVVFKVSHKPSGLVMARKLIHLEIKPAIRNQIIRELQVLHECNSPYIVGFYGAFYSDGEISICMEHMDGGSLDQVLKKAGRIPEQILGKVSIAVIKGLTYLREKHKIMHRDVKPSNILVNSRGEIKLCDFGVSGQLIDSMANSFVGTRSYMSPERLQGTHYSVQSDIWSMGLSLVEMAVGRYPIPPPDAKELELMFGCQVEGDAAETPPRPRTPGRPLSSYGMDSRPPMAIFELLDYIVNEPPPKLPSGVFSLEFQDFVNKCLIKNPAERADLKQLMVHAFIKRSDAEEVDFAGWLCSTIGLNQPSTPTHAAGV

Row | Compound | IC50
1 | N#Cc1ccc(C(=O)N2CC(O)C2)c(Nc2ccc(I)cc2F)c1 [Compound 1.002] | > 1500 nM
2 | O=c1c2c(Nc3ccc(I)cc3F)cncc2ccn1C[C@@H](O)CO [Compound 5.001] | ≤ 150 nM
3 | N#Cc1ccc(C(=O)NOCC2CC2)c(Nc2ccc(I)cc2F)c1F [Compound 1.031] | ≤ 150 nM
4 | O=C1CCCc2c1sc(Nc1ccc(I)cc1F)c2C(=O)NOCCO [Compound 4.029] | ≤ 150 nM
5 | O=C1CCCc2c1sc(Nc1ccc(I)cc1F)c2C(=O)NOCC1CC1 [Compound 4.032] | ≤ 150 nM
6 | N#Cc1ccc(C(=O)NOCCO)c(Nc2ccc(I)cc2F)c1F [Compound 1.030] | ≤ 150 nM
7 | O=C(O)Cn1ccc2cncc(Nc3ccc(I)cc3F)c2c1=O [Compound 5.004] | > 1500 nM
8 | O=C1CCCc2c1sc(Nc1ccc(I)cc1F)c2C(=O)NC[C@H](O)CO [Compound 4.034] | ≤ 150 nM
9 | O=c1c2c(Nc3ccc(I)cc3F)cncc2ccn1C[C@H](O)CO [Compound 5.002] | ≤ 150 nM
10 | COC(=O)Cn1ccc2cncc(Nc3ccc(I)cc3F)c2c1=O [Compound 5.005] | > 1500 nM
11 | O=C1CCCc2c1sc(Nc1ccc(I)cc1F)c2C(=O)NOC[C@H](O)CO [Compound 4.030] | ≤ 150 nM
12 | O=C1CCCc2c1sc(Nc1ccc(I)cc1F)c2C(=O)NC[C@@H](O)CO [Compound 4.035] | ≤ 150 nM
13 | N#Cc1ccc(C(=O)NO)c(Nc2ccc(I)cc2F)c1 [Compound 1.017] | ≤ 150 nM
14 | N#Cc1ccc(C(=O)NOCCO)c(Nc2ccc(I)cc2F)c1 [Compound 1.010] | ≤ 150 nM
15 | COC(=O)CCONC(=O)c1ccc(C#N)cc1Nc1ccc(I)cc1F [Compound 1.022] | > 1500 nM
16 | NCCONC(=O)c1c(Nc2ccc(I)cc2F)sc2c1CCCC2=O [Compound 4.033] | ≤ 150 nM

Test system: skin tumors
Experiment: not given
Details: oral; trametinib 2 mg/kg/day, cobimetinib 10 mg/kg/day; chronic, low-dose, solar simulated UV light; cited from earlier work

Row | Compound | reduction of skin tumors
17 | O=C(c1ccc(F)c(F)c1Nc1ccc(I)cc1F)N1CC(O)([C@@H]2CCCCN2)C1 [cobimetinib] | effective in reducing skin tumors
18 | CC(=O)Nc1cccc(-n2c(=O)n(C3CC3)c(=O)c3c(Nc4ccc(I)cc4F)n(C)c(=O)c(C)c32)c1 [trametinib] | effective in reducing skin tumors

Test system: not given
Experiment: not given
Details: topical application; cited from earlier work

Row | Compound | patients who experienced at least 1 adverse event ranging from mild to severe
19 | CC(C)Cn1cnc2c(N)nc3ccccc3c21 [imiquimod, Imiquimod] | Up to 100%
20 | O=c1[nH]cc(F)c(=O)[nH]1 [5-fluorouracil] | ≤ 97%

Test system: cutaneous squamous-cell carcinoma tumors
Experiment: not given
Details: topical delivery

Row | Compound | body weight loss of treated mice
21 | Cn1c(Nc2ccc(I)cc2F)c(C(=O)NOCCO)c2cccnc21 [Compound 2.003] | none of the mice lost weight

Same assay, conditions: topical gel 0.01%, 0.15%, 0.5% by weight, 30 day course of treatment, first 12 mice

Row | Compound | tumor formation versus topical vehicle (placebo)
22 | Cn1c(Nc2ccc(I)cc2F)c(C(=O)NOCCO)c2cccnc21 [Compound 2.003] | mice treated with the topical vehicle (placebo) formed substantially more tumors than those treated with Compound 2.003 at all concentrations

Same assay, conditions: topical gel 0.5%, 0.15%, 0.01%, FIG. 5

Row | Compound | tumor induction (new tumors per mouse)
23 | Cn1c(Nc2ccc(I)cc2F)c(C(=O)NOCCO)c2cccnc21 [Compound 2.003] | completely suppress tumor induction

Same assay, conditions: topical gel 0.5%, 0.15%, 0.01%, FIG. 6

Row | Compound | size of existing tumors (tumor volume per mouse)
24 | Cn1c(Nc2ccc(I)cc2F)c(C(=O)NOCCO)c2cccnc21 [Compound 2.003] | reduce the size of existing tumors
